Source: patent US20250163066A1, “PROTACs of MALT1” (TEGID THERAPEUTICS, INC., priority 2022, published 2025)

The compounds below were run against MALT1 (Homo sapiens (Human), UniProt Q9UDY8) (assay: MALT1 enzymatic activity inhibition (fluorescence, Ac-LRSR-AMC substrate)). Details: recombinant MALT1 1.5 ng/μl, Ac-LRSR-AMC 1 μM.
Format: biochemical
Method: Compound activity was determined using recombinant MALT1 protein (Creative Biomart, Cat #MALT1-28H) and Ac-LRSR-AMC Substrate in an in vitro enzymatic reaction. The enzymatic assay used to determine activity was a Fluorescence assay using a Microplate Reader ClarioStar Plus. The enzymatic reaction was carried out in 1× Assay Buffer (50 mM HEPES pH 7.2-7.4, 100 mM NaCl, 900 mM Sodium citrate, 10 mM DTT). The compounds were dispensed on a 384-well Diamond Well Plate (Axygen, Cat #P-384-120SQ-C—S) using the Biomek FX liquid handling system at 100× solutions of compounds in DMSO. 2.5×MALT1 mix (final concentration 1.5 ng/μl of MALT1) was prepared in 1× Assay Buffer and 8 μl of mixture per well were added into 384w white Reaction Plates with NBS (Corning, Cat #4513). 8 μl of 1× Assay Buffer were used for negative control. Plates were centrifuged for 1 min at 200 g. Next, the compounds were added to Reaction plates using Biomek station via following steps: 1 μl of 100× compounds (in DMSO) was mixed thoroughly with 19 μl of 1× Assay Buffer, then 4 μl of this mixture were added to Reaction plates with 8 μl of MALT1 mix. Plates were centrifuged for 1 min at 200 g and incubated for 10 minutes at rt. Next, 2.5× Ac-LRSR-AMC mix (final concentration 1 μM of Ac-LRSR-AMC) was prepared in 1× Assay Buffer and 8 μl of mixture per well were added to Reaction Plates using Biomek station. Plates were centrifuged for 1 min at 200 g, then the fluorescence was measured immediately using Microplate Reader. Plates were incubated for 30 minutes at 37° C., then for 30 minutes at rt. The fluorescence was measured after the whole incubation using Microplate Reader. The reaction signal was calculated as the subtraction of the first data set values from the second. The % inhibition was then used to calculate the IC50 values. The results of this assay are shown in the Table A. The values of EC50 shown as a letters A-E, where: A≤0.2 μM; 0.2 μM<B≤0.5 μM; 0.5 μM<C≤1 μM; 1<D≤5 μM; E >5.

Sequence of MALT1 (Q9UDY8 whole entry): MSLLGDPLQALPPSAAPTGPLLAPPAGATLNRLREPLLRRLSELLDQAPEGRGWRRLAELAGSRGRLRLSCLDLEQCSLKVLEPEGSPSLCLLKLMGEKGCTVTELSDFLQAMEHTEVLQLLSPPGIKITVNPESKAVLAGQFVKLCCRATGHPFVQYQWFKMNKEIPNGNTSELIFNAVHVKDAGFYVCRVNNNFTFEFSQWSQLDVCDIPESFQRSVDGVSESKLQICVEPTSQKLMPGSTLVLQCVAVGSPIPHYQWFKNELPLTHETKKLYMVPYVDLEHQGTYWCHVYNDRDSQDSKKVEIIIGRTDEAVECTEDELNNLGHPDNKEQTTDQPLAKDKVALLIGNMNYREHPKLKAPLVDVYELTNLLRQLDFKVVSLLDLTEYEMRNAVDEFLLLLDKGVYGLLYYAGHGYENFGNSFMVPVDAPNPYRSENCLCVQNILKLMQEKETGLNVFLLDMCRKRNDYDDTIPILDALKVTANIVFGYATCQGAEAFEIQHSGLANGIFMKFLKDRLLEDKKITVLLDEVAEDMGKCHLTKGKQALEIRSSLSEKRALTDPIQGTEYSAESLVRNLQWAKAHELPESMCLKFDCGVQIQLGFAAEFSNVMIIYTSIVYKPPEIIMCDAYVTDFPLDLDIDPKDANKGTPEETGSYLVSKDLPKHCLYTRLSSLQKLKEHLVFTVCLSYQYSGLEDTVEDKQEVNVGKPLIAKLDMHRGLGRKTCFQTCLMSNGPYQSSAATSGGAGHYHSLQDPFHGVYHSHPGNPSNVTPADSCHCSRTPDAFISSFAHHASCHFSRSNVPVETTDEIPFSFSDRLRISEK

SMILES	EC50 [µM]
COc1cc(-c2c(NC(=O)Nc3cnc(-c4noc(CNC(=O)CCOCCN5CCN(c6ccc7c(c6)CN(C6CCC(=O)NC6=O)C7=O)CC5)n4)c(C)c3)cnc3ccnn23)cc(OC)c1OC (centres unmarked) [Compound 1, 3-(2-{4-[2-(2,6-Dioxopiperidin-3-yl)-1-oxo-2,3-dihydro-1H-isoindol-5-yl]piperazin-1-yl}ethoxy)-N-[(3-{3-methyl-5-[({[7-(3,4,5-trimethoxyphenyl)pyrazolo[1,5-a]pyrimidin-6-yl]amino}carbonyl)amino]pyridin-2-yl}-1,2,4-oxadiazol-5-yl)methyl]propenamide]	> 5
O=C1CCC(N2Cc3cc(N4CCN(CCCCCn5cc(NC(=O)Nc6cnc7ccnn7c6C6CCC6)c(C(F)(F)F)n5)CC4)ccc3C2=O)C(=O)N1 (centres unmarked) [Compound 156, 1-(7-cyclobutylpyrazolo[1,5-a]pyrimidin-6-yl)-3-[1-[5-[4-[2-(2,6-dioxo-3-piperidyl)-1-oxo-isoindolin-5-yl]piperazin-1-yl]pentyl]-3-(trifluoromethyl)pyrazol-4-yl]urea]	> 5
COc1cc(-c2c(NC(=O)Nc3cnc(N4CCN(C(=O)COCC(=O)Nc5cccc6c5C(=O)N(C5CCC(=O)NC5=O)C6=O)CC4)c(C)c3)cnc3ccnn23)cc(OC)c1OC (centres unmarked) [Compound 26, N-[2-(2,6-dioxo-3-piperidyl)-1,3-dioxo-isoindolin-4-yl]-2-[2-[4-[3-methyl-5-[[7-(3,4,5-trimethoxyphenyl)pyrazolo[1,5-a]pyrimidin-6-yl]carbamoylamino]-2-pyridyl]piperazin-1-yl]-2-oxo-ethoxy]acetamide]	> 5

Further lines, results first:

EC50 [µM]	SMILES
≤ 0.2	Cc1cc(NC(=O)Nc2cnc3ccnn3c2C2CCCC2)cnc1-c1noc(CCCCCC(=O)Nc2ccc3c(c2)CN(C2CCC(=O)NC2=O)C3=O)n1 (centres unmarked) [Compound 61, 6-[3-[5-[(7-cyclopentylpyrazolo[1,5-a]pyrimidin-6-yl)carbamoylamino]-3-methyl-2-pyridyl]-1,2,4-oxadiazol-5-yl]-N-[2-(2,6-dioxo-3-piperidyl)-1-oxo-isoindolin-5-yl]hexanamide]
0.2 to 0.5	Cc1cc(NC(=O)Nc2cnc3ccnn3c2C2CCCC2)cnc1-c1noc(CCCCC(=O)Nc2cccc(C3CCC(=O)NC3=O)c2)n1 (centres unmarked) [Compound 100, 5-[3-[5-[(7-cyclopentylpyrazolo[1,5-a]pyrimidin-6-yl)carbamoylamino]-3-methyl-2-pyridyl]-1,2,4-oxadiazol-5-yl]-N-[3-(2,6-dioxo-3-piperidyl)phenyl]pentanamide]
≤ 0.2	CC(C)(C)C(=O)OCN1C(=O)CCC(N2Cc3cc(N4CCN(C(=O)CCCCc5nc(-c6ncc(NC(=O)Nc7cnc8ccnn8c7C7CCCC7)cc6Cl)no5)CC4)ccc3C2=O)C1=O (centres unmarked) [Compound 134, [3-[5-[4-[5-[3-[3-chloro-5-[(7-cyclopentylpyrazolo[1,5-a]pyrimidin-6-yl)carbamoylamino]-2-pyridyl]-1,2,4-oxadiazol-5-yl]pentanoyl]piperazin-1-yl]-1-oxo-isoindolin-2-yl]-2,6-dioxo-1-piperidyl]methyl 2,2-dimethylpropanoate]
1 to 5	CC(C)c1c(NC(=O)Nc2ccc(-c3nnc(CCCCCCN4CCN(c5ccc6c(c5)CN(C5CCC(=O)NC5=O)C6=O)CC4)s3)nc2)cnc2ccnn12 (centres unmarked) [Compound 142, 1-[6-[5-[6-[4-[2-(2,6-dioxo-3-piperidyl)-1-oxo-isoindolin-5-yl]piperazin-1-yl]hexyl]-1,3,4-thiadiazol-2-yl]-3-pyridyl]-3-(7-isopropylpyrazolo[1,5-a]pyrimidin-6-yl)urea]
≤ 0.2	Cc1cc(NC(=O)Nc2cnc3ccnn3c2C(C)C)cnc1-c1noc(CCCCC(=O)N2CCN(c3ccc4c(c3)CN(C3CCC(=O)N(C)C3=O)C4=O)CC2)n1 (centres unmarked) [Compound 145, 1-(7-isopropylpyrazolo[1,5-a]pyrimidin-6-yl)-3-[5-methyl-6-[5-[5-[4-[2-(1-methyl-2,6-dioxo-3-piperidyl)-1-oxo-isoindolin-5-yl]piperazin-1-yl]-5-oxo-pentyl]-1,2,4-oxadiazol-3-yl]-3-pyridyl]urea]
